ChEMBL document CHEMBL1201862, “PubChem BioAssay data set” (2004)
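Following 48 hours of exposure in 96-well plates, responses at five concentrations were used to interpolate endpoints linearly. GI50 marks 50% less growth.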 Activity calls are given as the source filed them. Rule as the data show it: active = GI50 up to about 1.1 µM and inactive = higher.

What was measured:
Experiment in all cases: DTP human tumour cell line panel, 48 h
SK-MEL-2 = test system: SK-MEL-2
MOLT-4 = test system: MOLT-4
NCI-H226 = test system: NCI-H226
RXF 393 = test system: RXF 393
MCF7 = test system: MCF7
DU-145 = test system: DU-145
HCC 2998 = test system: HCC 2998
A549 = test system: A549
SNB-19 = test system: SNB-19
ACHN = test system: ACHN
HL-60 = test system: HL-60
OVCAR-4 = test system: OVCAR-4
OVCAR-8 = test system: OVCAR-8
OVCAR-5 = test system: OVCAR-5
M14 = test system: M14
SK-MEL-5 = test system: SK-MEL-5
HT-29 = test system: HT-29
SR = test system: SR
LOX IMVI = test system: LOX IMVI
SF-539 = test system: SF-539

Measured: GI50

NC1CSc2ccccc2NC1=O (centres undefined)
inactive: SK-MEL-2 > 100 µM | MOLT-4 > 100 µM | NCI-H226 > 100 µM | RXF 393 > 100 µM | MCF7 > 100 µM | DU-145 > 100 µM | HCC 2998 > 100 µM | A549 > 100 µM | SNB-19 > 100 µM | ACHN > 100 µM | HL-60 > 100 µM | OVCAR-4 > 100 µM | OVCAR-8 > 100 µM | OVCAR-5 > 100 µM | M14 > 100 µM | SK-MEL-5 > 100 µM | HT-29 > 100 µM | SR > 100 µM | LOX IMVI > 100 µM | SF-539 > 100 µM

COC12c3ccccc3-c3ccccc3C1[C@H]1C(=O)OC(=O)[C@H]12 (some centres undefined)
inactive: SK-MEL-2 > 10 µM | MOLT-4 > 10 µM | NCI-H226 > 10 µM | RXF 393 > 10 µM | MCF7 > 10 µM | DU-145 > 10 µM | HCC 2998 > 10 µM | SNB-19 > 10 µM | ACHN > 10 µM | HL-60 > 10 µM | OVCAR-4 > 10 µM | OVCAR-8 > 10 µM | OVCAR-5 > 10 µM | M14 > 10 µM | SK-MEL-5 > 10 µM | HT-29 > 10 µM | SR > 10 µM | LOX IMVI > 10 µM | SF-539 > 10 µM

CC(=O)OC1CC2CC(=O)CC1N2C (centres undefined)
inactive: SK-MEL-2 > 100 µM | MOLT-4 > 100 µM | NCI-H226 > 100 µM | RXF 393 > 100 µM | MCF7 > 100 µM | DU-145 > 100 µM | HCC 2998 > 100 µM | A549 > 100 µM | SNB-19 > 100 µM | ACHN > 100 µM | HL-60 > 100 µM | OVCAR-4 > 100 µM | OVCAR-8 > 100 µM | OVCAR-5 > 100 µM | M14 > 100 µM | SK-MEL-5 > 100 µM | HT-29 > 100 µM | SR > 100 µM | LOX IMVI > 100 µM | SF-539 > 100 µM
